# Experimental data as given in patent publication US9365583B2, “Substituted pyrazoles and uses thereof” (Genentech, Inc., priority 2013, dated 2016).
# Target: T1, N-terminally GST-tagged DLK (catalytic domain amino acid 1-520) (Homo sapiens, UniProt Q12852)
# T1 construct: N-terminally GST-tagged DLK (catalytic domain amino acid 1-520); purchased Carna Bioscience
# T1 sequence (Q12852 1-520): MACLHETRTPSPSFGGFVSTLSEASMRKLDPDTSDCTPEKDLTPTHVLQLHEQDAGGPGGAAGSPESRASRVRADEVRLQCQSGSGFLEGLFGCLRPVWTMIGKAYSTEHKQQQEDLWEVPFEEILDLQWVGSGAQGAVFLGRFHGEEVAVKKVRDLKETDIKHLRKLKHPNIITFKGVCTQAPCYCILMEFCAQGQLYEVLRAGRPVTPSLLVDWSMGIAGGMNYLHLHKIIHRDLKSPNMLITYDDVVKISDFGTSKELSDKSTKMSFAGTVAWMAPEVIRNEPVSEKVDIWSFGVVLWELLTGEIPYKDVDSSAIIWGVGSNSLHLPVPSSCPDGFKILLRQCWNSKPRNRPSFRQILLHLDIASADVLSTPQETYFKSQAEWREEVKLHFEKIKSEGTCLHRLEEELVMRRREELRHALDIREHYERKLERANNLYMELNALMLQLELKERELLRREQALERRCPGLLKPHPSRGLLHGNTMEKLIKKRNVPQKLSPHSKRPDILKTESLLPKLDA
# Experiment: DLK TR-FRET inhibition assay
# Type: biochemical
# Settings: 5 nM GST-DLK, 40 nM HIS-MKK4 K131M substrate, 30 μM ATP, 60 minutes at ambient temperature
# Method in brief: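 Phosphorylated MKK4 was quantified by TR-FRET (Eu-labelled anti-phospho-MKK4, D2 anti-HIS; 3 h, 665 and 615 nm emission) after EDTA quench. Reactions held 5 nM GST-tagged DLK catalytic domain (1-520), 40 nM HIS-MKK4 K131M substrate, 30 μM ATP and compound (3-fold series from 20 uM), 60 min, room temperature, pH 7.5.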
row,Compound,Ki [nM]
1,"CO[C@H]1C[C@@H]2[C@H](C1)[C@H]2c1cc(-c2cnc(N)c(OC(F)F)c2)nn1C(C)C [compound 187, 3-(difluoromethoxy)-5-(1-isopropyl-5-((1R,3r,5S,6r)-3-methoxy-bicyclo[3.1.0]hexan-6-yl)-1H-pyrazol-3-yl)pyridin-2-amine]",2.2
2,"CC(C)n1nc(-c2cnc(N)c(C(F)(F)F)c2)cc1[C@H]1[C@@H]2C[C@H](N(C)C)C[C@@H]21 [compound 188, 5-(5-((lR,3r,5S,6r)-3-(dimethylamino)bicyclo[3.1,0]hexan-6-yl)-1-isopropyl-1 H-pyrazol-3-yl)-3-(trifluoromethyl)pyridin-2-am inc]",2.8
3,"CC(C)n1nc(-c2cnc(N)c(C(F)(F)F)c2)cc1[C@H]1[C@@H]2C[C@@H](N(C)C)C[C@@H]21 [compound 189, 5-(5-((1R,3s,5S,6r)-3-(dimethylamino)bicyclo[3.1.0]hexan-6-yl)-1-isopropyl-1H-pyrazol-3-yl)-3-(trifluoromethyl)pyridin-2-amine]",2.9
4,"CO[C@@H]1CCN([C@@H]2C[C@@H]3[C@H](C2)[C@H]3c2cc(-c3cnc(N)c(C(F)(F)F)c3)nn2C(C)C)C1 [compound 192, 5-(1-isopropyl-5-((1R,3s,5S,6R)-3-((R)-3-methoxypyrrolidin-1-yl)bicyclo[3.1.0]hexan-6-yl)-1H-pyrazol-3-yl)-3-(trifluoromethyl) pyridin-2-amine]",2.6
5,"CO[C@@H]1C[C@@H]2[C@H](C1)[C@H]2c1cc(-c2cnc(N)c(OC(F)F)c2)nn1C(C)C [compound 195, 3-(difluoromethoxy)-5-(1-isopropyl-5-((1R,3s,5S,6r)-3-methoxy-bicyclo[3.1.0]hexan-6-yl)-1H-pyrazol-3-yl)pyridin-2-amine]",6.4
6,"CC(C)n1nc(-c2cnc(N)c(OC(F)F)c2)cc1[C@H]1[C@@H]2C[C@H](N3CCN(C)CC3)C[C@@H]21 [compound 198, 3-(difluoromethoxy)-5-(1-isopropyl-5-((1R,3r,5S,6r)-3-(4-methyl-piperazin-1-yl)bicyclo[3.1.0]hexan-6-yl)-1H-pyrazol-3-yl) pyridin-2-amine]",2.1
7,"CC(C)n1nc(-c2cnc(N)c(OC(F)F)c2)cc1[C@H]1[C@@H]2C[C@@H](N3CCCN(C)CC3)C[C@@H]21 [compound 205, 3-(difluoromethoxy)-5-(1-isopropyl-5-((1R,3s,5S,6r)-3-(4-methyl-1,4-diazepan-1-yl)bicyclo [3.1.0]hexan-6-yl)-1H-pyrazol-3-yl)pyridin-2-amine]",2.9
8,"CC(C)n1nc(-c2cnc(N)c(OC(F)F)c2)cc1[C@H]1[C@@H]2C[C@@H](N3C[C@@H]4C[C@H]3CN4C)C[C@@H]21 [compound 206, 3-(difluoromethoxy)-5-(1-isopropyl-5-((1R,3s,5S,6S)-3-((1S,4S)-5-methyl-2,5-diazabicyclo [2.2.1]heptan-2-yl)bicyclo[3.1.0]hexan-6-yl)-1H-pyrazol-3-yl) pyridin-2-amine]",2.1
9,"CC(C)n1nc(-c2cnc(N)c(C(F)(F)F)c2)cc1[C@H]1[C@@H]2C[C@@H](N3C[C@@H]4C[C@H]3CN4C)C[C@@H]21 [compound 207, 5-(1-isopropyl-5-((1R,3s,5S,6S)-3-((1S,4S)-5-methyl-2,5-diazabicyclo [2.2.1]heptan-2-yl)bicyclo [3.1.0]hexan-6-yl)-1H-pyrazol-3-yl)-3-(trifluoromethyl) pyridin-2-amine]",3.6
10,"CC(C)n1nc(-c2cnc(N)c(OC(F)(F)F)c2)cc1[C@H]1[C@@H]2C[C@@H](N3C[C@@H]4C[C@H]3CN4C)C[C@@H]21 [compound 209, 5-(1-isopropyl-5-((1R,3s,5S,6S)-3-((1S,4S)-5-methyl-2,5-diazabicyclo [2.2.1]heptan-2-yl)bicyclo [3.1.0]hexan-6-yl)-1H-pyrazol-3-yl)-3-(trifluoromethoxy) pyridin-2-amine]",2.6
11,"CC(C)n1nc(-c2cnc(N)c(C(F)(F)F)c2)cc1[C@H]1[C@@H]2C[C@H](N3CCCN(C)CC3)C[C@@H]21 [compound 211, 5-(1-isopropyl-5-((1R,3r,5S,6r)-3-(4-methyl-1,4-diazepan-1-yl)bicyclo[3.1.0]hexan-6-yl)-1H-pyrazol-3-yl)-3-(trifluoromethyl) pyridin-2-amine]",3.2
12,"CO[C@H]1CCN([C@H]2C[C@@H]3[C@H](C2)[C@H]3c2cc(-c3cnc(N)c(OC(F)F)c3)nn2C(C)C)C1 [compound 212, 3-(difluoromethoxy)-5-(1-isopropyl-5-((1R,3r,5S,6S)-3-((S)-3-methoxypyrrolidin-1-yl)bicyclo [3.1.0]hexan-6-yl)-1H-pyrazol-3-yl)pyridin-2-amine]",4.4
13,"CC(C)n1nc(-c2cnc(N)c(OC(F)F)c2)cc1[C@H]1[C@@H]2C[C@H](F)C[C@@H]21 [compound 213, 3-(difluoromethoxy)-5-(5-((1R,3r,5S,6r)-3-fluorobicyclo[3.1.0]hexan-6-yl)-1-isopropyl-1H-pyrazol-3-yl)pyridin-2-amine]",5.1

# These reach a lower Ki. Values come first.
row,Ki [nM],Compound
1,2,"CO[C@@H]1CCN([C@@H]2C[C@@H]3[C@H](C2)[C@H]3c2cc(-c3cnc(N)c(OC(F)F)c3)nn2C(C)C)C1 [compound 194, 3-(difluoromethoxy)-5-(1-isopropyl-5-((1R,3s,5S,6R)-3-((R)-3-methoxypyrrolidin-1-yl)bicyclo [3.1.0]hcxan-6-yl)-1 H-pyrazol-3-yl)pyridin-2-amine]"
2,2,"CC(C)n1nc(-c2cnc(N)c(C(F)(F)F)c2)cc1[C@H]1[C@@H]2C[C@H](N3C[C@@H]4C[C@H]3CN4C)C[C@@H]21 [compound 200, 5-(1-isopropyl-5-((1R,3r,5S,6S)-3-((1S,4S)-5-methyl-2,5-diazabicyclo [2.2.1]heptan-2-yl)bicyclo [3.1.0]hexan-6-yl)-1H-pyrazol-3-yl)-3-(trifluoromethyl)pyridin-2-amine]"
3,2,"CC(C)n1nc(-c2cnc(N)c(C(F)(F)F)c2)cc1[C@H]1[C@@H]2C[C@@H](N3CCCN(C)CC3)C[C@@H]21 [compound 210, 5-(1-isopropyl-5-((1R,3s,5S,6r)-3-(4-methyl-1,4-diazepan-1-yl)bicyclo[3.1.0]hexan-6-yl)-1H-pyrazol-3-yl)-3-(trifluoromethyl) pyridin-2-amine]"
4,1.8,"CC(C)n1nc(-c2cnc(N)c(OC(F)F)c2)cc1[C@H]1[C@@H]2C[C@@H](N3CCN(C)CC3)C[C@@H]21 [compound 199, 3-(difluoromethoxy)-5-(1-isopropyl-5-((1R,3s,5S,6r)-3-(4-methyl-piperazin-1-yl)bicyclo[3.1.0]hexan-6-yl)-1H-pyrazol-3-yl) pyridin-2-amine]"
5,1.5,"CC(C)n1nc(-c2cnc(N)c(OC(F)F)c2)cc1[C@H]1[C@@H]2C[C@H](N3CCCN(C)CC3)C[C@@H]21 [compound 208, 3-(difluoromethoxy)-5-(1-isopropyl-5-((1R,3r,5S,6r)-3-(4-methyl-1,4-diazepan-1-yl)bicyclo[3.1.0]hexan-6-yl)-1H-pyrazol-3-yl) pyridin-2-amine]"
6,1.4,"CO[C@@H]1CCN([C@@H]2C[C@@H]3[C@H](C2)[C@H]3c2cc(-c3cnc(N)c(OC(F)(F)F)c3)nn2C(C)C)C1 [compound 193, 5-(1-isopropyl-5-((1R,3s,5S,6R)-3-((R)-3-methoxypyrrolidin-1-yl)bicyclo[3.1.0]hexan-6-yl)-1H-pyrazol-3-yl)-3-(trifluoromethoxy) pyridin-2-amine]"
7,1.3,"CC(C)n1nc(-c2cnc(N)c(OC(F)(F)F)c2)cc1[C@H]1[C@@H]2C[C@H](N3C[C@@H]4C[C@H]3CN4C)C[C@@H]21 [compound 201, 5-(1-isopropyl-5-((1R,3r,5S,6S)-3-((1S,4S)-5-methyl-2,5-diazabicyclo [2.2.1]heptan-2-yl)bicyclo [3.1.0]hexan-6-yl)-1H-pyrazol-3-yl)-3-(trifluoromethoxy) pyridin-2-amine]"
8,1.2,"CC(C)n1nc(-c2cnc(N)c(OC(F)F)c2)cc1[C@H]1[C@@H]2C[C@H](N3C[C@@H]4C[C@H]3CN4C)C[C@@H]21 [compound 202, 3-(difluoromethoxy)-5-(1-isopropyl-5-((1R,3r,5S,6S)-3-((1S,4S)-5-methyl-2,5-diazabicyclo[2.2.1]heptan-2-yl)bicyclo[3.1.0]hexan-6-yl)-1H-pyrazol-3-yl) pyridin-2-amine]"
9,1.2,"CC(C)n1nc(-c2cnc(N)c(OC(F)(F)F)c2)cc1[C@H]1[C@@H]2C[C@H](N3CCCN(C)CC3)C[C@@H]21 [compound 204, 5-(1-isopropyl-5-((1R,3r,5S,6r)-3-(4-methyl-1,4-diazepan-1-yl)bicyclo[3.1.0]hexan-6-yl)-1H-pyrazol-3-yl)-3-(trifluoromethoxy) pyridin-2-amine]"
10,0.9,"CC(C)n1nc(-c2cnc(N)c(OC(F)(F)F)c2)cc1[C@H]1[C@@H]2C[C@@H](N3CCCN(C)CC3)C[C@@H]21 [compound 203, 5-(1-isopropyl-5-((1R,3s,5S,6r)-3-(4-methyl-1,4-diazepan-1-yl)bicyclo[3.1.0]hexan-6-yl)-1H-pyrazol-3-yl)-3-(trifluoromethoxy) pyridin-2-amine]"
